According to patent US5922697A, “Compounds, compositions and methods for inhibiting the binding of proteins containing an SH2 domain to cognate phosphorylated proteins” (Warner-Lambert Company, priority 1998, dated 1999):
Read-outs that look alike come from different tables or passages of the source.

How the values were obtained:
Src SH2 = target: T1, Src SH2 (Homo sapiens, UniProt P12931); experiment: Inhibition of 125I-phosphopeptide binding to immobilized Src SH2; conditions: competitive 125I-phosphopeptide displacement, GST-Src SH2 fusion protein, pH 7.5, room temperature, 20 minutes
T1 construct: glutathione-S-transferase(GST)-Src SH2 fusion protein
T1 sequence (P12931 151-248 limits assumed): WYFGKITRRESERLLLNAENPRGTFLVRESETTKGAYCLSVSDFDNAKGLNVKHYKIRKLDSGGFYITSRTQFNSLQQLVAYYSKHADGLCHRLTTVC
Method: The binding affinities of compounds of the present invention to Src SH2 was determined using a competitive radiolabeled phosphopeptide displacement assay.
Binding was performed at room temperature for 20 minutes while continuously inverting the plate. […] Results are expressed as IC50 values in Table 1 below.

Abl SH2 = target: T2, Abl SH2 (Homo sapiens, UniProt P00519); experiment: Inhibition of 125I-phosphopeptide binding to immobilized Abl SH2; conditions: competitive 125I-phosphopeptide displacement, GST-Abl SH2 fusion protein, pH 7.5, room temperature, 20 minutes
T2 construct: glutathione-S-transferase(GST)-Abl SH2 fusion protein
T2 sequence (P00519 127-217 limits assumed): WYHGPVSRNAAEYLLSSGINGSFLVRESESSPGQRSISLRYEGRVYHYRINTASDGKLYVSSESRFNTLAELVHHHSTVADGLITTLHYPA
Method: The binding affinities of compounds of the present invention to Abl SH2 was determined using a competitive radiolabeled phosphopeptide displacement assay. […] Binding was performed at room temperature for 20 minutes while continuously inverting the plate.

Swiss 3T3 cells = experiment: Inhibition of DNA synthesis as monitored by 3H-thymidine uptake; type: cell-based; conditions: Swiss 3T3 cells stimulated with growth factor (PDGFbb or Fetal Bovine Serum), 24 hours; compound concentration not given
Method: Inhibition of DNA Synthesis as Monitored by ^3 H-Thymidine Uptake
DNA synthesis occurs when a cell is exposed to Platelet Derived Growth Factor (PDGF). For PDGF-induced DNA synthesis to occur, c-SRC or another member of the SRC gene family is required. The ability of the SRC SH2 inhibitors of the present invention to block PDGF-stimulated DNA synthesis can be assessed using the protocol set forth below.
Swiss 3T3 cells were grown in 12-well plates for 3 days to approximately 50% confluency. The growth media was removed and replaced with 1.0 mL/well of assay buffer (Dulbecco's Modified Eagle Medium containing 0.2% Bovine Serum Albumin), and incubated for 24 hours to arrest growth.
Test compounds (5 μL) were add at 100 times their final concentration. Methyl sulfoxide was used as a control and levels in all wells kept under 1.0% of DMSO. Cells were then stimulated with growth factor (PDGFbb or Fetal Bovine Serum), and allowed to incubate another 24 hours.
During the final 2 hours of treatment, 5 uL of 0.1 μCi/μL ^3 H-thymidine was added to each well (final=0.5 μCi/well)
After incubation the medium was removed by aspiration, and each well was washed twice with ice-cold phosphate buffered saline (0.5 mL/wash). 0.5 mL ice-cold 5% trichloroacetic acid was added to each well and incubated on ice for a minimum 10 minutes. The trichloroacetic acid solution was removed and each well was washed twice with 0.5 mL ice-cold trichloroacetic acid, and then once with ice-cold water (0.5 mL). 0.5 mL of 2% Sodium Dodecyl Sulfate was added to each well to solubilize the cells and allowed to incubate at room temperature for 10-15 minutes. The solubilized cells were transfered to 20 mL scintillation vials. Each well was washed with 0.5 mL of water and combined with the corresponding scintillation vial. 10 mL of Ready-Gel scintillation cocktail was added to each vial and the vials were then counted in a scintillation counter. Results are shown as percent of ^3 H-thymidine uptake relative to control in Table 4 below.

[1] = target: T3, Grb2 SH2-GST binding to PDGF receptor kinase domain (Homo sapiens, UniProt P62993); experiment: Inhibition of activated PDGF receptor binding to 35S-SH2 domains: Grb2 SH2-GST; conditions: 35S-Grb2 SH2-GST, immobilized PDGF receptor kinase domain, pH 7.5, room temperature, 30 minutes
T3 construct: S-X-SH2-GST (X=Src, Ab1, Grb2, p85-N, p85-C, Syp-N, and PLCy-C domains)
T3 sequence (P62993 60-152 limits assumed): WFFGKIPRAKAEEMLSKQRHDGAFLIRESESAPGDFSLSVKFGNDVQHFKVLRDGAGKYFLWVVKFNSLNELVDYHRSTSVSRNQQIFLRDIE
Method: (§1) Inhibition of Activated PDGF Receptor Binding to ^35 S-SH2 Domains
(§2) The assay was conducted at room temperature for 30 minutes while continuously inverting the plate. The resultant SH2-GST-PDGF receptor kinase complex was separated from excess ^35 S-SH2-GST protein by vacuum filtration and the amount of bound SH2-GST was determined by scintillation counting.

[2] = target: T4, Syp(N) SH2-GST binding to PDGF receptor kinase domain (Homo sapiens, UniProt Q06124); experiment: Inhibition of activated PDGF receptor binding to 35S-SH2 domains: Syp(N) SH2-GST; conditions: 35S-Syp(N) SH2-GST, immobilized PDGF receptor kinase domain, pH 7.5, room temperature, 30 minutes
T4 construct: S-X-SH2-GST (X=Src, Ab1, Grb2, p85-N, p85-C, Syp-N, and PLCy-C domains)
T4 sequence (Q06124 6-102): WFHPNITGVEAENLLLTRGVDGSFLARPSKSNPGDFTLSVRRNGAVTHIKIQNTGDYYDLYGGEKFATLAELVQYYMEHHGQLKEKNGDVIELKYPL
Method: as §1, §2

[3] = target: T5, p85(C) SH2-GST binding to PDGF receptor kinase domain (Homo sapiens, UniProt P27986); experiment: Inhibition of activated PDGF receptor binding to 35S-SH2 domains: p85(C) SH2-GST; conditions: 35S-p85(C) SH2-GST, immobilized PDGF receptor kinase domain, pH 7.5, room temperature, 30 minutes
T5 construct: S-X-SH2-GST (X=Src, Ab1, Grb2, p85-N, p85-C, Syp-N, and PLCy-C domains)
T5 sequence (P27986 624-718 limits assumed): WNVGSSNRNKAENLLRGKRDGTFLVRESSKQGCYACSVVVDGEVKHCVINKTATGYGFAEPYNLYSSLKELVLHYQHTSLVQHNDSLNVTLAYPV
Method: as §1, §2

[4] = target: T6, PLCγ(C) SH2-GST binding to PDGF receptor kinase domain (Homo sapiens, UniProt P19174); experiment: Inhibition of activated PDGF receptor binding to 35S-SH2 domains: PLCγ(C) SH2-GST; conditions: 35S-PLCγ(C) SH2-GST, immobilized PDGF receptor kinase domain, pH 7.5, room temperature, 30 minutes
T6 construct: S-X-SH2-GST (X=Src, Ab1, Grb2, p85-N, p85-C, Syp-N, and PLCy-C domains)
T6 sequence (P19174 668-756 limits assumed): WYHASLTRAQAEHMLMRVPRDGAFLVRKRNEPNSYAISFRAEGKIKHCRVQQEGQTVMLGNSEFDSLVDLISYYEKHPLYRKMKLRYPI
Method: as §1, §2

[5] = read-out: IC50, SRC SH2 Binding
[6] = read-out: IC50, Abl SH2 Binding

Row | SMILES | IC50 (Src SH2; IC50, SRC SH2 Binding) [µM] | IC50 (Abl SH2; IC50, Abl SH2 Binding) [µM] | further results
1 | CC(=O)N[C@@H](Cc1ccc(OP(=O)(O)O)cc1)C(=O)NC(C)c1ccc(OC(C)CC2CCCCC2)c(C(N)=O)c1 (single isomer, unassigned) [Example 64b, Phosphoric acid mono-[4-(2-acetylamino-2-{1-[3-carbamoyl-4-(2-cyclohexyl-1-methyl-ethoxy)-phenyl]-ethylcarbamoyl}-ethyl)-phenyl] ester] | 11 | 14 | 
2 | CC(=O)N[C@@H](Cc1ccc(C(F)(F)P(=O)(O)OCOC(=O)C(C)(C)C)cc1)C(=O)NC(C)c1ccc(OCC2CCCCC2)c(C(N)=O)c1 (single isomer, unassigned) [Example 77, [S-(R*,R*)]- or [S-(R*,S*)]-2,2-Dimethyl-propionic acid {[(4-{2-Acetylamino-2-[1-(3-carbamoyl-4-cyclohexylmethoxy-phenyl)-ethylcarbamoyl]-ethyl}-phenyl)-difluoro-methyl} hydroxy-phosphinoyloxymethyl ester] |  |  | 3H-Thymidine Uptake, % Uptake Relative to Control (Swiss 3T3 cells): 34%
3 | CC(=O)N[C@@H](Cc1ccc(OP(=O)(O)O)cc1)C(=O)N[C@@H](CCC(=O)O)C(=O)N(C)CCCC1CCCCC1 [Example 1, [S-(R*,R*)]-4-[2-Acetylamino-3-(4-phosphonooxy-phenyl)-propionylamino]-4-[(3-cyclohexyl-propyl)-methylcarbamoyl]-butyric acid] |  |  | IC50 [1]: > 100 µM; IC50 [2]: > 100 µM; IC50 [3]: > 100 µM; IC50 [4]: > 100 µM
4 | CC(=O)N[C@@H](Cc1ccc(C(F)(F)P(=O)(O)O)cc1)C(=O)N[C@@H](CCC(=O)O)C(=O)N(C)CCCC1CCCCC1 [Example 5, [S-(R*,R*)]-4-{2-Acetylamino-3-[4-(difluoro-phosphonomethyl)-phenyl]-propionylamino}-4-[(3-cyclohexylpropyl)-methyl-carbamoyl]-butyric acid] |  |  | IC50 [1]: > 100 µM; IC50 [2]: > 100 µM; IC50 [3]: > 100 µM; IC50 [4]: > 100 µM
5 | CC(=O)N[C@@H](Cc1ccc(OP(=O)(O)O)cc1)C(=O)N[C@@H](CCC(=O)O)C(=O)N1CCC[C@@H]1CCc1ccccc1 [Example 11, 4-[(S)-2-Acetylamino-3-(4-phosphonooxy-phenyl)-(S)-propionylamino]-5-oxo-5-((S)-2-phenethyl-pyrrolidin-1-yl)-pentanoic acid] |  |  | IC50 (Src SH2; [5]): 2.1 µM; IC50 (Abl SH2; [6]): 17 µM
6 | CC(=O)N[C@@H](Cc1ccc(OP(=O)(O)O)cc1)C(=O)N[C@@H](CCC(=O)O)C(=O)N1CCC[C@@H]1CCC1CCCCC1 [Example 12, 4-[(S)-2-Acetylamino-3-(4-phosphonooxy-phenyl)-(S)-propionylamino]-5-[2-((S)-2-cyclohexyl-ethyl)-pyrrolidin-1-yl]-5-oxo-pentanoic acid] |  |  | IC50 (Src SH2; [5]): 0.7 µM; IC50 (Abl SH2; [6]): 2.5 µM
7 | CC(=O)N[C@@H](Cc1ccc(OP(=O)(O)O)cc1)C(=O)N[C@@H](CCC(=O)O)C(=O)NCCCc1cccc(OCC(N)=O)c1 [Example 24, [S-(R*,R*)]-4-[2-Acetylamino-3-(4-phosphonooxy-phenyl)-propionylamino]-4-[3-(3-carbamoylmethoxy-phenyl)-propylcarbamoyl]-butyric acid] | 7.2 | 36 | 
8 | CCC(CC)(NC(=O)[C@H](Cc1ccc(OP(=O)(O)O)cc1)NC(C)=O)C(=O)NCCCc1ccccc1 [Example 57, (S)-Phosphoric acid mono-(4-{2-acetylamino-2-[1-ethyl-1-(3-phenyl-propylcarbamoyl)-propylcarbamoyl]-ethyl}-phenyl) ester] | 33 | 20 | 
9 | CC(=O)N[C@@H](Cc1ccc(OP(=O)(O)O)cc1)C(=O)N[C@H](C(=O)NCCCc1ccccc1)C(C)O (stereo partly drawn) [Example 58, [S-(R*,R*)]-Phosphoric acid mono-(4-{2-acetylamino-2-[2-hydroxy-1-(3-phenyl-propylcarbamoyl)-propylcarbamoyl]-ethyl}-phenyl) ester] | 21 | ~60 | 
10 | CN(C)C(=O)N[C@@H](Cc1ccc(OP(=O)(O)O)cc1)C(=O)N[C@@H](CCC(=O)O)C(=O)N(C)CCCC1CCCCC1 [Example 59, [S-(R*,R*)]-4-[(3-Cyclohexyl-propyl)-methyl-carbamoyl]-4-[2-(3,3-dimethyl-ureido)-3-(4-phosphonooxy-phenyl)-propionylaminol-butyric acid] | 1.1 | 4.5 | 
11 | CN(CCCC1CCCCC1)C(=O)[C@H](CCC(=O)O)NC(=O)[C@H](Cc1ccc(OP(=O)(O)O)cc1)NS(=O)(=O)N(C)C [Example 60, 5-[(3-cyclohexylpropyl)methylamino]-4-[[2-[[(dimethylamino)-sulfonyl]amino]-1-oxo-3-[4-(phosphonooxy)phenyl]propyl]amino]-5-oxo-pentanoic acid] | 1.9 | 9.7 | 
12 | CN(CCCC1CCCCC1)C(=O)[C@H](CCC(=O)O)NC(=O)NCc1ccc(OP(=O)(O)O)cc1 [Example 61, (S)-4-[(3-Cyclohexyl-propyl)--methyl-carbamoyl]-4-[3-(4-phosphonooxy-benzyl)-ureido]-butyric acid] | 16 | ~100 | 
13 | CN(CCCC1CCCCC1)C(=O)[C@H](CCC(=O)O)NC(=O)c1ccc(OP(=O)(O)O)cc1 [Example 62, (S)-4-[(3-Cyclohexyl-propyl)-methyl-carbamoyl]-4-(4-phosphonooxy-benzoylamino)-butyric acid] | 8.3 | 44 | 
14 | CC(=O)N[C@@H](Cc1ccc(OP(=O)(O)O)cc1)C(=O)NCc1ccc(OCC2CCCCC2)c(C(=O)NO)c1 [Example 70, (S)-Phosphoric acid mono-{4-[2-acetylamino-2-(4-cyclohexylmethoxy-3-hydroxycarbamoyl-benzylcarbamoyl)-ethyl]-phenyl} ester] | 24 | 16 | 
15 | CCc1ccccc1COc1ccc(CNC(=O)[C@H](Cc2ccc(OP(=O)(O)O)cc2)NC(C)=O)cc1C(N)=O [Example 72, (S)-Phosphoric acid mono-(4-{2-acetylamino-2-[3-carbamoyl-4-(2-ethyl-benzyloxy)-benzylcarbamoyl]-ethyl}-phenyl) ester] | 6.2 | 28 | 
16 | NC(=O)c1cc(CNC(=O)Nc2ccc(OP(=O)(O)O)cc2)ccc1OCC1CCCCC1 [Example 74, Phosphoric acid mono-{4-[3-(3-carbamoyl-4-cyclohexylmethoxy-benzyl)-ureido]-phenyl} ester] | 20 | > 100 | 
17 | NC(=O)c1cc(CNC(=O)NCc2ccc(OP(=O)(O)O)cc2)ccc1OCC1CCCCC1 [Example 76, Phosphoric acid mono-{4-[3-(3-carbamoyl-4-cyclohexylmethoxy-benzyl)-ureidomethyl]-phenyl} ester] | 34 | > 100 | 
